# From patent US20080255206A1, “Rxr Agonists and Antagonists, Alone or in Combination with Ppar Ligands, in the Treatment of Metabolic and Cardiovascular Diseases” (priority 2005, published 2008)
# Tests used:
# [1] = test system: skin inflammation induced by topical 9-cis RA; assay: Preventive and therapeutic effect on 9-cis RA-induced skin inflammation, human volunteer study; assay type: in vivo
# Method: In this pilot clinical trial on one healthy volunteer, the substance 9-cis RA and compound 15 are administered epicutaneously. The inflammation-inducing agent 9-cis RA is used in a concentration of 0.3%. The RXR antagonist compound 15 is applied in a concentration of 1%. The compounds are solved in ethanol/propylene glycol (1:1) and administered twice daily. The site of application is the abdominal skin, with various areas of 3×3=9 cm^2. Volume per application is 0.1 ml.
# The following three clinical settings at different sites are chosen: • 1. Induction of skin inflammation by 9-cis RA 9-cis RA is administered as a 0.3% solution twice daily from day 1 to day 14. The vehicle is administered from day 15 to disappearance of skin inflammation. • 2. Prevention of 9-cis RA-induced skin inflammation by RXR antagonist Compound 15 9-cis RA solution of 0.3% is administered twice daily from day 1 to day 14, each time followed subsequently by application of compound 15 as a 1% solution. • 3. Therapy of 9-cis RA-induced skin inflammation by RXR antagonist compound 15 9-cis RA solution of 0.3% is administered twice daily from day 1 to day 14. Compound 15 as a 1% solution is administered from day 15 until disappearance of skin inflammation.
# The signs and symptoms of skin inflammation are recorded on a 0-4 scale, as described in example 21. The evaluation of the anti-inflammatory effect is based on the daily determination of the inflammation score (scale 0-4).
# The following parameters serve as criteria for evaluation of the effect of 9-cis RA, the preventive effect of compound 15 and the therapeutic effect of compound 15. • 1. Sum of the daily inflammation scores from day 1 to day 28. Total inflammation score. • 2. Sum of the daily inflammation scores from day 15 to disappearance of skin inflammation. • 3. Time in days from day 15 to disappearance of skin inflammation.
# [2] = test system: myeloperoxidase (MPO) activity; assay: Acute inflammation of mouse ears, MPO activity; assay type: in vivo, C57BL/6 mice; settings: 4 d
# Method: […] mice of the C57BL/6 strain are used. Inflammation is induced on mouse ears with either AtRA, 9-cis RA or TPA by topical application. Inflammation is measured objectively by determination of the activity of myeloperoxidase (MPO) being directly correlated to the infiltration of polymorphonuclear white blood cells and by the determination of mRNA expression of c-jun, a protein implicated in the AP-1 transduction pathway according to known methods, see e.g. P. L. Stanley et al., Skin Pharmacol. 4, 262-271 (1991) (MPO assay), N. Basset-Sequin et al., J. Invest. Dermatol. 94, 418-422 (1990), F. J. Rauscher et al., Cell 52, 471-480 […], P. Sassone-Corn et al., Nature 326, 507-510 (1987), and M. Pfahl, Endocr. Rev. 14, 651-658, 1993, which are incorporated by reference regarding the experimental method.
# In the “acute inflammation” test, mice are treated topically (epicutaneously), orally or intraperitoneally, daily for 4 days. In the “semi chronic inflammation” test, mice are treated topically according to the schedules given below. For each experiment, a group of at least 4 mice of both sexes are used in the defined condition, regarding placebo, vehicle control, compound, topical formulation, oral formulation, dosage and concentration. The topical vehicle consists of ethanol/PEG 400/water (3:1:1).
# The anti-inflammatory effect of topical RXR antagonist compound 15 is tested by determination of myeloperoxidase activity in % of vehicle treated controls. For induction of inflammation 9-cis RA or TPA are applied topically to the skin, daily for 4 days. The RXR antagonist compound 15 (see Table 1) is administered topically one hour after the application of the inflammation inducing agent. The mice are sacrified 24 hours after the last treatment.
# [3] = test system: healthy, non-inflamed human skin; assay: Topical application on healthy human skin, clinical pilot trial; assay type: in vivo; set-up: key to Skin inflammation score (scale 0-4): 0: no signs or symptoms of skin inflammation; 1: slight erythema, desquamation and pruritus; 2: moderate erythema, desquamation and pruritus; 3: marked erythema, desquamation, pruritus/burning; 4: severe erythema, desquamation, pruritus, burning or even pain, edema, exsudation, ulceration; settings: for Skin inflammation score (scale 0-4): day 17; for Irritation or inflammation of the skin: human volunteer, 1% concentration daily to the skin for 2 weeks
# Text: In a clinical pilot trial on one healthy volunteer compound 15 is applied epicutaneously in a concentration of 1% for its inflammation potential compared to that of the strong inflammation inducing agent 9-cis RA in concentrations of 0.1%, 0.3% and 1%.
# The compounds are solved or suspended in ethanol/propylene glycol (1:1). They are applied epicutaneously twice daily, 7 days a week, for two concecutive weeks. The site of application is an area of 3×3=9 cm^2 on the abdominal skin. The volume is 0.1 ml per application.
# The following signs and symptoms of skin inflammation are recorded: Erythema, desquamation (scaling), pruritus, burning, pain, exsudation, edema, ulceration. They are classified on a scale of: • 0=no signs or symptoms of skin inflammation • 1=slight erythema, desquamation and pruritus • 2=moderate erythema, desquamation and pruritus • 3=marked erythema, desquamation, pruritus/burning • 4=severe erythema, desquamation, pruritus, burning or even pain, edema, exsudation, ulceration
# Treatment period lasts from day 1 to 14, the post-treatment observation period from day 15 to day 28.
# skin of rats = assay: Topical administration to the skin of rats (irritation); assay type: in vivo; settings: concentrations up to 2.5%
# skin of mice = assay: Topical administration to the skin of mice (irritation); assay type: in vivo; settings: concentrations up to 2.5%
# RARα = molecular target: T1, RARα (Homo sapiens, UniProt P10276); assay: Retinoid activation assay, RARα (COS-1 cells, SeAP reporter); assay type: cell-based; settings: read-out: Activation EC50 RAR α
# T1 sequence (P10276 183-417 limits assumed): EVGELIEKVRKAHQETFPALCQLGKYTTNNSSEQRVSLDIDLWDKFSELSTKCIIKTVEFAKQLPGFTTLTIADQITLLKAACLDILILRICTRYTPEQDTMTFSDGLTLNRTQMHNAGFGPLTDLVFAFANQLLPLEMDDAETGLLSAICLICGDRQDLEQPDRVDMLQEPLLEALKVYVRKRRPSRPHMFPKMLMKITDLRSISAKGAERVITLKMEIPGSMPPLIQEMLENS
# Method: Chimeric RAR cDNAs are used for transfection which contain the DNA binding region of the estrogen receptor. As reporter system, the SeAp (secreted alkaline phosphatase) gene under control of the vitellogenin estrogen response element fused to the herpes simplex thymidinkinase promoter (vit-TK-SeAP) is used. The galactosidase expression vector pCH110 serves to correct for variation in transfection efficiency. […] At the end of the incubation, the cell supernatants are assayed for SeAP activity. Results are given as EC50 (nM), the concentration leading to half-maximal activation.
# [4] = 9-cis RA 0.3% day 1 to day 14, then vehicle
# [5] = Prevention: 9-cis RA 0.3% and compound 15 1%, both day 1 to day 14
# [6] = Therapy: 9-cis RA 0.3% day 1 to day 14, compound 15 1% day 15 to disappearance of inflammation
compound,measurement,setting,value
"CC1=C(/C=C/C(C)=C\C=C\C(C)=C\C(=O)O)C(C)(C)CCC1 [9-cis RA, 9-cis retinoic acid, reference compound]",Sum of daily inflammation scores from day 15 to disappearance of inflammation,[1]; [4],14
same,"Sum of daily inflammation scores, day 1 to day 28. Total inflammation score",[1]; [4],18
same,Time in days from day 15 to disappearance of inflammation,[1]; [4],13 days
same,MPO activity (% vehicle treated mice),"[2]; 9-cis RA 0.05% alone, topical",647 ± 142 % vehicle treated mice
same,Skin inflammation score (scale 0-4),[3]; 0.1% epicutaneously twice daily day 1-14,1
same,Skin inflammation (in words),"[3]; 0.1% epicutaneously twice daily, days 12, 13 and 14",moderate inflammation
same,Skin inflammation score (scale 0-4),[3]; 0.3% epicutaneously twice daily day 1-14,2
same,Skin inflammation (in words),"[3]; 0.3% epicutaneously twice daily, days 12, 13 and 14",moderate inflammation
same,Skin inflammation score (scale 0-4),[3]; 1% epicutaneously twice daily day 1-14,3
same,Skin inflammation (in words),"[3]; 1.0% epicutaneously twice daily, days 12, 13 and 14",marked inflammation
"CC1=C(/C=C/C2=C(/C=C/C(C)=C/C(=O)O)CCCCC2)C(C)(C)CCC1 [Compound 1, (2E,4E)-3-methyl-5-[2-[(E)-2-(2,6,6-trimethyl-1-cyclohexen-1-yl)ethenyl]-1-cyclohepten-1-yl]-2,4-pentadienoic acid]",Irritation or inflammation of the skin,skin of rats,does not lead to irritation or inflammation of the skin
same,Irritation or inflammation of the skin,[3],does not induce any irritation or inflammation of the skin
same,Irritation or inflammation of the skin,skin of mice,does not lead to irritation or inflammation of the skin
CC(/C=C/c1sccc1-c1ccc2c(c1)C(C)(C)CCC2(C)C)=C\C(=O)O [Compound 9],EC50,RARα,2300 nM
"CC1=C(/C=C/c2sccc2/C=C/C(C)=C/C(=O)O)C(C)(C)CCC1 [Compound 5, (2E,4E)-3-Methyl-5-[2-[(E)-2-(2,6,6-trimethyl-1-cyclohexen-1-yl)ethenyl]-3-thienyl]-2,4-pentadienoic acid]",EC50,RARα,170 nM
"CC1=C(/C=C/C2=C(/C=C/C(C)=C/C(=O)O)CCC2)C(C)(C)CCC1 [Compound 14, (2E,4E)-3-Methyl-5-[2-[(E)-2-(2,6,6-trimethyl-1-cyclohexen-1-yl)ethenyl]-1-cyclopenten-1-yl]-2,4-pentadienoic acid]",EC50,RARα,150 nM
"CC(/C=C/C1=C(c2ccc3c(c2)C(C)(C)CCC3(C)C)CCC1)=C\C(=O)O [Compound 12, (2E,4E)-3-Methyl-5-[2-(5,5,8,8-tetramethyl-5,6,7,8-tetrahydro-naphthalen-2-yl)-cyclopent-1-enyl]-penta-2,4-dienoic acid]",EC50,RARα,370 nM
"CCC1(CC)CCC(C)(C)c2cc(\C(C)=C/C=C/C(C)=C/C(=O)O)ccc21 [Compound 24, (2E,4E,6Z)-7-(5,5-Diethyl-8,8-dimethyl-5,6,7,8-tetrahydro-naphthalen-2-yl)-3-methyl-octa-2,4,6-trienoic acid]",EC50,RARα,54 nM
"CCCCOc1c(\C(C)=C/C=C/C(C)=C/C(=O)O)cc(C(C)(C)C)cc1C(C)(C)C [Compound 15, (2E,4E,6Z)-7-[2-butoxy-3,5-bis(1,1-dimethylethyl)phenyl]-3-methyl-2,4,6-octatrienoic acid]",Irritation or inflammation of the skin,skin of rats,does not lead to irritation or inflammation of the skin
same,Sum of daily inflammation scores from day 15 to disappearance of inflammation,[1]; [5],5
same,"Sum of daily inflammation scores, day 1 to day 28. Total inflammation score",[1]; [5],11
same,Time in days from day 15 to disappearance of inflammation,[1]; [5],6 days
same,Sum of daily inflammation scores from day 15 to disappearance of inflammation,[1]; [6],5
same,"Sum of daily inflammation scores, day 1 to day 28. Total inflammation score",[1]; [6],9
same,Time in days from day 15 to disappearance of inflammation,[1]; [6],6 days
same,MPO activity (% vehicle treated mice),[2]; 9-cis RA 0.05% + test compound 0.05% topical,236 ± 92 % vehicle treated mice
same,MPO activity (% vehicle treated mice),[2]; TPA 0.005% + test compound 0.05% topical,163 ± 25 % vehicle treated mice
same,MPO activity (% vehicle treated mice),[2]; TPA 0.005% + test compound 2.5% topical,142 ± 18 % vehicle treated mice
same,Skin inflammation (in words),"[3]; 1% epicutaneously twice daily day 1-14, observation to day 28",well tolerated with no skin inflammation
same,Skin inflammation (in words),"[3]; 1% epicutaneously twice daily day 1-14, observation to day 28, listed as Compound A",does not induce any objective or subjective symptoms
same,Irritation or inflammation of the skin,[3],does not induce any irritation or inflammation of the skin
same,Irritation or inflammation of the skin,skin of mice,does not lead to irritation or inflammation of the skin
